Assay results reported in patent publication US20020068351A1, “Human brain phosphodiesterase” (SmithKline Beecham Corporation, priority 1994, published 2002).
Entries after “also recorded” stand apart in the source; their conditions may differ.

Legend:
[1] = test system: PDE-deficient mutant cells expressing the human PDE IV; assay: Yeast growth arrest assay in PDE-deficient cells expressing human PDE IV
Description: (§1) For heat shock, cells are replicated from the master plate onto two plates each containing the same medium as describe above, one of which is preheated to 55° C. for 1 hour. Cells transferred to the preheated plate are incubated at 55° C. for 5 minutes and then shifted to 30° C. For monitoring growth on acetate, the master plate is replicated to a plate containing the same medium except 2% potassium acetate instead of glucose. Growth is scored after five days at 5 days at 30° C.

wild-type yeast cells = assay: Yeast control: killing of wild-type cells
Description: as §1

hPDE IVB = hPDE IVB (Homo sapiens, UniProt Q07343); assay: PDE assay: cAMP hydrolysis by recombinant hPDE IVB in yeast lysate supernatant
Sequence of hPDE IVB (Q07343 1-564 isoform Q07343-2): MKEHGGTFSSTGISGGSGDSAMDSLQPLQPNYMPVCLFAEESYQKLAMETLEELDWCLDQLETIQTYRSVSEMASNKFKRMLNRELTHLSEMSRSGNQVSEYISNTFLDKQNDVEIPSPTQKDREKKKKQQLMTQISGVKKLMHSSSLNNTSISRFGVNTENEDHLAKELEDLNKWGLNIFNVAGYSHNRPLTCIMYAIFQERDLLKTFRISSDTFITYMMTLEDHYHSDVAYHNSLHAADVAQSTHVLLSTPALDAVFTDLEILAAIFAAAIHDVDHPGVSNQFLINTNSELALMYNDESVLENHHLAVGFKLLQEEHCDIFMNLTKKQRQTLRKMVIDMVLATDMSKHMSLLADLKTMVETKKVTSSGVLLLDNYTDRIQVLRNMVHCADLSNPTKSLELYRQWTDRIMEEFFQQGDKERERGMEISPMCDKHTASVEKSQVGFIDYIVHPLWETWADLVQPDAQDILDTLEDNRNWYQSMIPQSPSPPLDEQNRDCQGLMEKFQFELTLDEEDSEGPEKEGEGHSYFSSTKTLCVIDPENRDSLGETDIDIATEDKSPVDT
Description: PDE Assays and Inhibitor Studies—PDE activity was determined in 100,000×g supernatant fractions of yeast cell lysates. […] For studies in which the IC50s of various inhibitors were determined, compounds were present in the reaction mixture at concentrations that varied over three orders of magnitude. Reactions were conducted at 30° C. for 30 min.
Appropriate corrections were made for the changes in specific activity of the substrate. […] Statistical comparisons between one-site and two-site fits were conducted via F test.

COc1ccc(C2CNC(=O)C2)cc1OC1CCCC1 (stereo not drawn) [rolipram]
cytotoxicity ([1]; under growth arrest conditions): cytotoxic | killing effect ([1]; under normal growth conditions): no killing effect | killing effect (wild-type yeast cells): no killing effect

CN/C(=N\c1ccc(C2=NNC(=O)CC2C)cc1)NC#N (stereo not drawn) [siquazodan, siguazodan]
IC50 (hPDE IVB): > 30 µM

Nc1nc2c(ncn2[C@@H]2O[C@@H]3COP(=O)(O)O[C@H]3[C@H]2O)c(=O)[nH]1 [cGMP]
hydrolysis of cGMP as substrate (hPDE IVB; hPDE IVB, substrate concentrations as great as 10 mM): very poor activity; also recorded: No detectable hydrolysis | Km (hPDE IVB; substrate of hPDE IVB): > 10 mM
